Assay results as given in US6726928B2, “Process for preparing solid dosage forms for unpalatable pharmaceuticals” (R.P. Scherer Technologies, Inc., priority 1994, dated 2004).

Experiment: pH dependence of Piroxicam solubility
Assay type: physicochemical
From the text: The solubility of weak acids and weak bases may be adjusted by pH control. Increasing the pH of a solution can decrease solubility of a weak base, whereas the solubility of a weak acid can be […] by a pH decrease. The relative levels of weak acid or weak base added to the drug can be calculated with the knowledge of the Henderson-Hasselbalch equation, and by calculation of the pKa of the drug concerned in the solvent in question. […] Piroxicam ([…]) has a “U”-shaped pH solubility curve with a minimum around pH 3.5. […] A further advantage arising out of the reduced solubility of Piroxicam is reduced formation of the hydrate which has a bright yellow color.

pH of minimum of the U-shaped pH solubility curve: ~3.5
SMILES: CN1C(C(=O)Nc2ccccn2)=C(O)c2ccccc2S1(=O)=O [Piroxicam]
change in solubility on pH adjustment (pH adjusted from about 6.5 to approximately 4.0 by addition of an acid such as citric acid): approximately tenfold decrease in solubility
